Experiments:
MATE1 = target: T1, MATE1 (Homo sapiens, UniProt Q96FL8); assay: Concentration-dependent uptake of ASP+ in MATE1-expressing HEK293 cells; type: cell-based
T1 construct: expressed in transfected cells; gift of Dr. Kathy Giacomini, UCSF
T1 sequence (Q96FL8 1-570): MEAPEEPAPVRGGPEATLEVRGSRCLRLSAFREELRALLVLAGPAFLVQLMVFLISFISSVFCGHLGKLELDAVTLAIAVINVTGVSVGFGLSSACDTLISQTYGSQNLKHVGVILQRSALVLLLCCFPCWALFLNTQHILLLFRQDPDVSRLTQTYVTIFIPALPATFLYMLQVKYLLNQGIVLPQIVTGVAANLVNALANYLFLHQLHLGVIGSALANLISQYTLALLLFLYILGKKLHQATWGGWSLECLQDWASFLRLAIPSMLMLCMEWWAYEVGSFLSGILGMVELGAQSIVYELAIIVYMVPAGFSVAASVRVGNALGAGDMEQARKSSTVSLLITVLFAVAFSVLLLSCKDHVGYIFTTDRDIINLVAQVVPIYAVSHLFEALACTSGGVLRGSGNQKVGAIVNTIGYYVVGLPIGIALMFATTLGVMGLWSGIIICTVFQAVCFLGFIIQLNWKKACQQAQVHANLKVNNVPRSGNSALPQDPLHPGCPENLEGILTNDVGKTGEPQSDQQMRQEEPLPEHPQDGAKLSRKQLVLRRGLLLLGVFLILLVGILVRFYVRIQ
Description: After washing once with prewarmed Hank’s Buffered Saline Solution (HBSS), cells were preincubated for 30 min at 37 °C with various 5-HT3 antagonists for OCT2 cells or in a 30 mM NH4Cl solution in HBSS at pH 6.5 for MATE1 cells for intracellular acidification. […] […] […] Media was removed and washed four times with ice-cold HBSS. Cells were lysed with 1% Triton X-100. […] Experiments were repeated three separate times, with three to four replicates in each experiment.
GraphPad Prism v6 (GraphPad Software, La Jolla, CA, USA) was used for statistical analysis.

[1] = test system: empty vector (EV) HEK293 cells; assay: Concentration-dependent uptake of ASP+ in empty vector HEK293 cells; type: cell-based, human; conditions: EV HEK293, 0–100 μM, 1 min
Description: Figure 2 Time and Concentration-Dependent Accumulation of ASP^+ in HEK293 Cells Overexpressing OCT2 or MATE1. HEK cells expressing empty vector (EV), OCT2, or MATE1 were incubated for different time periods (0.5–20 min, 10 μM ASP^+, 37 °C) to evaluate time-dependent uptake (A) or with increasing concentrations of ASP^+ (0–100 μM, 1 min 37 °C) for concentration-dependent uptake (B) on a shaker. Specific transport uptake is shown in dashed lines. Intracellular fluorescence was quantified and normalized to protein concentration. Data are presented as mean ± SE (n = 3).
OCT2- and MATE1-overexpressing HEK293 cells were seeded in clear poly-^D-lysine-coated 24-well plates (Fisher Scientific, Hanover Park, IL, USA) and grown for 24 h until approximately 90% confluent. […]
GraphPad Prism v6 (GraphPad Software, La Jolla, CA, USA) was used for statistical analysis. Km and Vmax were calculated using nonlinear regression (Michaelis–Menten enzyme kinetics equation, (Y = Vmax × X/(Km + X), fit for least squares). Data with two variables were analyzed using a two-way ANOVA followed by a one-way ANOVA and/or Dunnett’s post-hoc test for multiple comparisons. IC50 values were calculated via a nonlinear regression to fit least squares. Differences were considered statistically significant at p < 0.05.

OCT2 and MATE1 = assay: Bidirectional transcellular flux of ASP+ in OCT2/MATE1 double-transfected MDCK cells; type: cell-based, human; conditions: human, ASP+ 25 μM, read-out: B-to-A/A-to-B efflux ratio
Description: (§1) Figure 4 Transcellular Flux of ASP^+ in Control and OCT2/MATE1-Transfected MDCK cells. (A). Protein expression of OCT2 (~63 kDa,) and MATE1 (~54 kDa) in vector control MDCK cells (lanes 1–2) and OCT2/MATE1 double transfected (lanes 3–4). (B). Cells were incubated with ASP^+ (25 μM) in either apical or basolateral media for 120 min and fluorescence in apical or basolateral media was quantified (A-to-B: apical-to-basolateral; B-to-A: basolateral-to-apical). ^† p < 0.05 compared to A-to-B. ^‡ p < 0.05 compared to vector. (C). Cells were incubated with ASP^+ (25 μM) in basolateral media and positive control inhibitors in apical and basolateral media for 120 min. Fluorescence was measured in the apical chamber. (D). Intracellular fluorescence was quantified and normalized to protein concentration. Data are expressed as mean ± SE (n = 3). * p < 0.05 compared to no inhibitor. CIM–Cimetidine; PYR–Pyrimethamine; OLA–Olanzapine.
(§2) Cells were incubated with 5-HT3 antagonists in the apical chamber in HBSS pH 6.0 and 5-HT3 antagonists with ASP^+ (25 μM) in the basolateral chamber in HBSS pH 7.4 and incubated at 37 °C for 120 min. […]

human OCT2 and MATE1 = assay: as above; type: cell-based; conditions: ASP+ 25 μM, 120 min
Description: as §1, §2

[2] = Bidirectional transcellular flux of ASP+ in control MDCK cells; type: cell-based, canine; conditions: dog, ASP+ 25 μM, read-out: B-to-A transport relative to A-to-B transport
Description: as §1, §2

MDCK monolayers = assay: Passive permeability of lucifer yellow across MDCK monolayers; type: in vitro ADME, canine; conditions: lucifer yellow 20 μM, B-to-A, 1 h
Description: Both MDCK cell lines were seeded on 0.4 μm transwell inserts (VWR, Radnor, PA, USA) at a density of 2 × 10^5 cells/cm^2. […] The integrity of MDCK monolayers was verified by measuring transepithelial electrical resistance (TEER) >150 Ω*cm^2 using an epithelial voltohmmeter, EVOM^2 (World Precision Instruments, Sarasota, FL). Proper formation of tight junctions was also verified by measurement of passive permeability of lucifer yellow in the basolateral-to-apical (B-to-A) direction. Lucifer yellow (20 μM) was applied to the basolateral chamber for 1 h, and media were collected from the apical chamber.

| Average passive permeability (Papp) (MDCK monolayers) | Molecule | Vmax of ASP+ uptake (MATE1; MATE1-expressing HEK293, 0–100 μM, 1 min) | Km at 1 min (MATE1; human, HEK293 cells overexpressing MATE1, pH 7.4, MATE1-expressing HEK293, 0–100 μM) | Km [1] | Vmax of ASP+ uptake [1] | efflux ratio at 120 min, 25 μM (OCT2 and MATE1) | B-to-A transport relative to A-to-B transport (human OCT2 and MATE1) | efflux ratio at 90 min, 25 μM ([2]; 90 min) | efflux ratio at 120 min, 25 μM ([2]; 120 min) |
| --- | --- | --- | --- | --- | --- | --- | --- | --- | --- |
| – | CN(C)c1ccc(C=Cc2cc[n+](C)cc2)cc1.[I-] [ASP^+, 4-(4-(Dimethylamino)styryl)-N-methylpyridinium iodide] | 3.4 nmol/mg/min | 8.2 µM | 37.3 µM | 1.9 nmol/mg/min | 2.7 | up to 2.8 fold | 1.3 | 1.7 |
| 0.7 ×10⁻⁶ cm/s | Lucifer yellow | – | – | – | – | – | – | – | – |
